# From US10285979B2, “Breast cancer therapeutic agent containing 5′-hydroxy-5-nitro-indirubin-3′-oxime as active ingredient” (ANYGEN CO., LTD., priority 2016, dated 2019)
# Where two headings read alike, the source gives them in different places.
# Key:
# [1] = test system: triple negative cell lines; settings: 7 of 10 types of triple negative cell lines
# [2] = test system: MDA-MB-231 triple negative breast cancer cells
# Excerpt: After implanting MDA-MB-231 triple negative breast cancer cells to the nude mouse, the tumor has been grown to the 200 mm^3 volume. […] The tumor growth has been observed for 27 days.
# The tumor volume and shape in the nude mouse have been observed for 27 days.
# [3] = test system: HCT-116 colorectal cancer cells; settings: 10 mg/kg intraperitoneally every other day
# Protocol: The tumor has been grown after injecting HCT-116 colorectal cancer cells (10×10^6 cells/0.1 ml of non-serum matrigel medium) to the nude mouse.
# The tumor volume and shape in the nude mouse have been observed for 24 days.
# [4] = test system: transplanted A549 cell tumor; settings: in vivo; cited from earlier work
# [5] = test system: ER positive breast cancer cell lines; settings: 3 types of ER positive breast cancer cell lines
# [6] = test system: A549 human non-small cell lung cancer cells; settings: cited from earlier work
# [7] = Protocol: Chemical name (IUPAC) of AGM-130 is (2′Z 3′E)-5′-hydroxy-5-nitro indirubin oxime. […] For the practical formulation of injectable aqueous solution, AGM-130 in PEG300 solution is diluted with 0.1 N Na2CO3 in saline solution to 70% aqueous solution with final concentration of 3.75 mg/mL.
# [8] = test system: LDH (Lactate dehydrogenase)
# Excerpt: Further, we have analyzed the secretion of LDH (Lactate dehydrogenase) enzyme to media as a representative necrosis biomarker.
# [9] = test system: KB oral cavity cancer cells
# Protocol: The tumor has been grown after injecting KB oral cavity cancer cells (10×10^6 cells/0.1 ml of non-serum matrigel medium) to the nude mouse. […] The tumor growth has been observed for 28 days.
# The tumor volume and shape in the nude mouse have been observed for 28 days.
compound,measurement,setting,value
"O=C1Nc2ccc([N+](=O)[O-])cc2C1=C1Nc2ccc(O)cc2C1=NO [AGM-130, (2′Z 3′E)-5′-hydroxy-5-nitro indirubin oxime]",IC50,[1],< 1 µM
same,tumor volume reduction compared to control group,[2]; 10 mg/kg intraperitoneally,about 40%
same,"volume of tumor, Mean ± S.E.","[2]; 10 mg/kg intraperitoneally twice a week, day 0",268.0 ± 6.1
same,"volume of tumor, Mean ± S.E.","[2]; 10 mg/kg intraperitoneally twice a week, day 3",369.7 ± 5.0
same,"volume of tumor, Mean ± S.E.","[2]; 10 mg/kg intraperitoneally twice a week, day 6",474.3 ± 6.6
same,"volume of tumor, Mean ± S.E.","[2]; 10 mg/kg intraperitoneally twice a week, day 9",634.9 ± 36.2
same,"volume of tumor, Mean ± S.E.","[2]; 10 mg/kg intraperitoneally twice a week, day 12",813.5 ± 29.0
same,"volume of tumor, Mean ± S.E.","[2]; 10 mg/kg intraperitoneally twice a week, day 15",985.6 ± 44.8
same,"volume of tumor, Mean ± S.E.","[2]; 10 mg/kg intraperitoneally twice a week, day 18",1095.7 ± 54.2
same,"volume of tumor, Mean ± S.E.","[2]; 10 mg/kg intraperitoneally twice a week, day 21",1119.8 ± 57.7
same,"volume of tumor, Mean ± S.E.","[2]; 10 mg/kg intraperitoneally twice a week, day 24",1242.1 ± 76.0
same,"volume of tumor, Mean ± S.E.","[2]; 10 mg/kg intraperitoneally twice a week, day 27",1484.9 ± 86.8
same,tumor volume reduction compared to control group,[2]; 20 mg/kg intraperitoneally,about 64%
same,"volume of tumor, Mean ± S.E.","[2]; 20 mg/kg intraperitoneally twice a week, day 0",248.0 ± 11.0
same,"volume of tumor, Mean ± S.E.","[2]; 20 mg/kg intraperitoneally twice a week, day 3",295.4 ± 22.0
same,"volume of tumor, Mean ± S.E.","[2]; 20 mg/kg intraperitoneally twice a week, day 6",364.9 ± 23.5
same,"volume of tumor, Mean ± S.E.","[2]; 20 mg/kg intraperitoneally twice a week, day 9",457.4 ± 47.3
same,"volume of tumor, Mean ± S.E.","[2]; 20 mg/kg intraperitoneally twice a week, day 12",559.5 ± 56.2
same,"volume of tumor, Mean ± S.E.","[2]; 20 mg/kg intraperitoneally twice a week, day 15",623.4 ± 51.5
same,"volume of tumor, Mean ± S.E.","[2]; 20 mg/kg intraperitoneally twice a week, day 18",668.5 ± 56.8
same,"volume of tumor, Mean ± S.E.","[2]; 20 mg/kg intraperitoneally twice a week, day 21",767.2 ± 106.7
same,"volume of tumor, Mean ± S.E.","[2]; 20 mg/kg intraperitoneally twice a week, day 24",833.1 ± 139.7
same,"volume of tumor, Mean ± S.E.","[2]; 20 mg/kg intraperitoneally twice a week, day 27",894.2 ± 151.6
same,tumor volume reduction compared to control group,[2]; 40 mg/kg intraperitoneally,about 70%
same,"volume of tumor, Mean ± S.E.","[2]; 40 mg/kg intraperitoneally twice a week, day 0",253.1 ± 8.5
same,"volume of tumor, Mean ± S.E.","[2]; 40 mg/kg intraperitoneally twice a week, day 3",313.3 ± 9.7
same,"volume of tumor, Mean ± S.E.","[2]; 40 mg/kg intraperitoneally twice a week, day 6",327.5 ± 19.1
same,"volume of tumor, Mean ± S.E.","[2]; 40 mg/kg intraperitoneally twice a week, day 9",372.4 ± 8.3
same,"volume of tumor, Mean ± S.E.","[2]; 40 mg/kg intraperitoneally twice a week, day 12",444.8 ± 7.3
same,"volume of tumor, Mean ± S.E.","[2]; 40 mg/kg intraperitoneally twice a week, day 15",481.9 ± 39.1
same,"volume of tumor, Mean ± S.E.","[2]; 40 mg/kg intraperitoneally twice a week, day 18",532.7 ± 27.6
same,"volume of tumor, Mean ± S.E.","[2]; 40 mg/kg intraperitoneally twice a week, day 21",620.1 ± 45.2
same,"volume of tumor, Mean ± S.E.","[2]; 40 mg/kg intraperitoneally twice a week, day 24",686.2 ± 85.6
same,"volume of tumor, Mean ± S.E.","[2]; 40 mg/kg intraperitoneally twice a week, day 27",730.8 ± 73.9
same,tumor volume reduction compared to control group,[2]; control group paclitaxel (5 mg/kg),about 14%
same,volume of tumor,[3]; FIG. 12,cannot be reduced significantly
same,volume of tumor,[3]; FIG. 13,cannot be reduced significantly
same,tumor growth,[4],dose-dependently suppresses
same,IC50,[5],< 1 µM
same,cell cycle,[6],arrests the cell cycle of G2/M phase
same,proliferation,[6],significantly inhibits the proliferation
same,solubility,[7]; in DMF and DMSO,soluble
same,solubility,[7]; in ethanol and acetone,very difficult to dissolve
same,solubility,[7]; in water,practically insoluble
same,apoptosis and necrosis (LDH secretion),[8],apoptosis and necrosis have been induced at the same time
same,volume of tumor,"[9]; 5/10/20 mg/kg intraperitoneally every other day, FIG. 11",cannot be reduced significantly
same,reduction of volume of tumor compared to paclitaxel,[9]; paclitaxel 10 mg/kg positive control,cannot result in significant reduction
